According to patent publication US20090062294A1, “HETEROARYL-SUBSTITUTED UREA MODULATORS OF FATTY ACID AMIDE HYDROLASE” (priority 2007, published 2009):

System: mechanical (tactile) allodynia in the left hind paw
Assay: Assay Method 3: Rat Mild Thermal Injury Model (MTI), mechanical allodynia
Assay type: in vivo, Sprague-Dawley rats
Conditions: 10 mg/Kg p.o.; 0.5 h after administration; mean +/- S.E.M.
Text: Assay Method 3—Rat Mild Thermal Injury Model (MTI)
Pathogen-free, male albino Sprague-Dawley rats were purchased from Harlan Industries (San Diego, Calif.) and maintained on a 12-h light/dark cycle (lights on at 9:00 AM and off at 9:00 PM) in a climate-controlled room. Food and water were available ad libitum up to the time of the testing.
Under isoflurane/oxygen anesthesia, a first-degree burn injury (erythema without blistering) was produced as follows: the plantar surface of the rat's left hind paw was placed on water-dampened 56° C. hotplate for 20 seconds and steady contact was maintained by applying an 84 g weight to the dorsum (after Nozaki-Taguchi & Yaksh, Neurosci. Lett. 1998, 254, 25-28).
Mild thermal injury results in mechanical allodynia in the left hind paw. Mechanical (tactile) allodynia was assessed by determining the median threshold at which the affected paw was withdrawn from graded stimuli (von Frey filaments ranging from 0.41 to 15.8 g) applied perpendicularly with sufficient force to bend slightly and held for 2-3 seconds against the proximal half of the third and fourth toe surfaces through wire-mesh observation cages. Paw flinching during or immediately following the removal of the stimulus was considered a positive response. A paw withdrawal threshold (PWT) was determined by sequentially increasing and decreasing the stimulus strength and analyzing withdrawal data using an adaptation of the Dixon up-down method, as described (Chaplan et al., J. Neurosci. 1994, 53, 55-63). Rats were included in the study only if their baseline PWT was 3.1623 g or lower (4.5 logarithmically).
Rats were tested for pre-injury thresholds prior to mild thermal injury and again for baseline thresholds after development of mechanical allodynia. Immediately after baseline measurement, test compound or vehicle was administered orally and the measurement was repeated at 0.5 h after administration. The tactile thresholds (log value) were converted to percent of a maximum possible effect ( %MPE): % MPE=[Threshold(t)−Threshold(baseline)]*100/[Threshold(pre)−Threshold(baseline)], where t=post-treatment time. Data were expressed as mean±standard error of the mean (S.E.M.). Statistical analysis was performed using two-way ANOVA with repeated measures with a significance level of p<0.05.
Results for compounds tested in this assay are presented in Table 2, as an average of results obtained. Compounds were tested in free base, hydrochloride salt, and/or trifluoroacetic acid salt forms.

| SMILES | % MPE |
| --- | --- |
| O=C(Nc1noc2ccccc12)N1CCN(Cc2cccc(Oc3ccc(C(F)(F)F)cc3)c2)CC1 [Example 109, N-1,2-Benzisoxazol-3-yl-4-{3-[4-(trifluoromethyl)phenoxy]benzyl}-piperazine-1-carboxamide] | 0% |
| O=C(Nc1noc2cc(F)ccc12)N1CCN(Cc2cccc(Oc3ccc(Cl)cc3)c2)CC1 [Example 245, 4-[3-(4-Chloro-phenoxy)-benzyl]-piperazine-1-carboxylic acid (6-fluoro-benzo[d]isoxazol-3-yl)-amide] | 36 +/− 10% |
